Measurements: ChEMBL document CHEMBL5579813, “2-(3-Indolyl)acetamides and their oxazoline analogues: Anticancer SAR study” (Bioorg Med Chem Lett, 2024)

How the values were obtained:
BE(2)-C [1] = test: Antiproliferative activity against human BE2C cells assessed as residual cell viability at 25 uM incubated for 96 hrs by MTT assay relative to control; assay type: functional
BE(2)-C [2] = test: Antiproliferative activity against human BE2C cells assessed as reduction in cell growth incubated for 96 hrs by MTT assay; assay type: functional, cell-based
SW-620 = test: Antiproliferative activity against human SW620 cells assessed as reduction in cell growth incubated for 96 hrs by MTT assay; assay type: functional, cell-based; conditions: SW-620, 96 h
[3] = Antiproliferative activity against human Kelly cells assessed as reduction in cell growth incubated for 96 hrs by MTT assay; assay type: functional, cell-based
[4] = Antiproliferative activity against human fibroblasts assessed as reduction in cell growth incubated for 96 hrs by MTT assay; assay type: toxicity, cell-based, Fibroblast

| Structure (SMILES) | Residual cell viability (BE(2)-C [1]) | IC50 (BE(2)-C [2]) | further results |
| --- | --- | --- | --- |
| NC(=O)C(c1ccccc1)c1c(-c2ccc3ccccc3c2)[nH]c2ccccc12 (stereo not drawn) | 19.2% | 8.46 µM | – |
| NC(=O)C(c1ccccc1)c1c(-c2ccc3ccccc3c2)[nH]c2ccc(Cl)cc12 (stereo not drawn) | 144% | – | – |
| COc1ccc(C(C(N)=O)c2c(-c3ccccc3)[nH]c3ccccc23)cc1 (stereo not drawn) | 129% | – | – |
| COc1ccc(C(C(N)=O)c2c(-c3ccccc3)[nH]c3ccccc23)cc1OC (stereo not drawn) | 16.1% | – | – |
| NC(=O)C(c1ccccc1)c1c(-c2ccccc2)[nH]c2ccccc12 (stereo not drawn) | 185% | – | – |
| CC1(C)COC(C(c2ccccc2)c2c(-c3ccccc3)[nH]c3ccccc23)=N1 (stereo not drawn) | 13.3% | – | – |
| COc1ccc(-c2[nH]c3ccccc3c2C(C(N)=O)c2ccccc2)cc1 (stereo not drawn) | 100% | – | – |
| CCc1ccc(C(C2=NC(C)(C)CO2)c2c(-c3ccc(C)c(C)c3)[nH]c3ccccc23)cc1 (stereo not drawn) | 16.5% | – | – |
| COc1ccc(C(C(N)=O)c2c(-c3ccc4ccccc4c3)[nH]c3ccccc23)cc1 (stereo not drawn) | 13.7% | 0.47 µM | – |
| COc1ccc(C(C2=NC(C)(C)CO2)c2c(-c3ccc(C)cc3)[nH]c3ccccc23)cc1 (stereo not drawn) | 17.2% | 9.4 µM | – |
| COc1ccc(-c2[nH]c3ccccc3c2C(C(N)=O)c2ccc(C)cc2)cc1 (stereo not drawn) | 87% | 4.65 µM | – |
| CC(C)c1ccc(C(C(N)=O)c2c(-c3ccccc3)[nH]c3ccccc23)cc1 (stereo not drawn) | 88% | 24 µM | – |
| CC1(C)COC(C(c2ccccc2F)c2c(-c3ccc4c(c3)CCCC4)[nH]c3ccccc23)=N1 (stereo not drawn) | 25.6% | 88 µM | – |
| CCc1ccc(C(C2=NC(C)(C)CO2)c2c(-c3ccc4c(c3)CCCC4)[nH]c3ccccc23)cc1 (stereo not drawn) | 33.3% | – | – |
| NC(=O)C(c1ccc(Cl)cc1)c1c(-c2ccc3ccccc3c2)[nH]c2ccccc12 (stereo not drawn) | 13.9% | 0.79 µM | – |
| COc1ccccc1C(C1=NC(C)(C)CO1)c1c(-c2ccc3c(c2)CCCC3)[nH]c2ccccc12 (stereo not drawn) | 42% | 20 µM | – |
| NC(=O)C(c1ccccc1Cl)c1c(-c2ccc3ccccc3c2)[nH]c2ccccc12 (stereo not drawn) | 132% | 0.96 µM | – |
| CCc1ccc(C(C2=NC(C)(C)CO2)c2c(-c3ccc(C)cc3)[nH]c3ccccc23)cc1 (stereo not drawn) | 189% | – | – |
| NC(=O)C(c1cccc(Cl)c1)c1c(-c2ccc3ccccc3c2)[nH]c2ccccc12 (stereo not drawn) | 142% | – | – |

| Structure (SMILES) | Residual cell viability (BE(2)-C [1]) | IC50 (BE(2)-C [2]) | further results |
| --- | --- | --- | --- |
| COc1ccc(C(C2=NC(C)(C)CO2)c2c(-c3ccc(C)c(C)c3)[nH]c3ccccc23)cc1 (stereo not drawn) | 135% | – | – |
| Cc1ccc(C(C(N)=O)c2c(-c3ccc4ccccc4c3)[nH]c3ccccc23)cc1 (stereo not drawn) | 14.5% | 0.29 µM | IC50 (SW-620): 0.37 µM; IC50 [3]: 0.93 µM; IC50 at 96 h [4]: 75.7 µM |
| CC1(C)COC(C(c2ccccc2)c2c(-c3ccc4ccccc4c3)[nH]c3ccccc23)=N1 (stereo not drawn) | 128% | – | – |
| NC(=O)C(c1ccc(Cl)cc1)c1c(-c2ccccc2)[nH]c2ccccc12 (stereo not drawn) | 14.1% | 0.99 µM | – |
| Cc1ccc(-c2[nH]c3ccccc3c2C(C2=NC(C)(C)CO2)c2ccccc2)cc1 (stereo not drawn) | 134% | – | – |
| COc1ccc(-c2[nH]c3ccccc3c2C(C(N)=O)c2ccccc2OC)cc1 (stereo not drawn) | 178% | 7.34 µM | – |
| NC(=O)C(c1ccccc1)c1c(-c2ccccc2)[nH]c2ccc(Cl)cc12 (stereo not drawn) | 136% | 14 µM | – |
| CC1(C)COC(C(c2ccccc2Cl)c2c(-c3ccc4c(c3)CCCC4)[nH]c3ccccc23)=N1 (stereo not drawn) | 34.3% | 6.1 µM | – |
| COc1ccc(-c2[nH]c3ccccc3c2C(C(N)=O)c2ccccc2OC)cc1OC (stereo not drawn) | 169% | – | – |
| COc1ccc(C(C(N)=O)c2c(-c3ccc4ccccc4c3)[nH]c3ccccc23)cc1OC (stereo not drawn) | 49.2% | 0.25 µM | IC50 (SW-620): 1.71 µM; IC50 [3]: 0.23 µM; IC50 at 96 h [4]: 192 µM |
| NC(=O)C(c1ccccc1Cl)c1c(-c2ccccc2)[nH]c2ccccc12 (stereo not drawn) | 13.9% | – | – |
| Cc1ccc(-c2[nH]c3ccccc3c2C(C(N)=O)c2ccccc2)cc1 (stereo not drawn) | 159% | – | – |
| Cc1ccc(C(C(N)=O)c2c(-c3ccccc3)[nH]c3ccccc23)cc1 (stereo not drawn) | 151% | – | – |
| NC(=O)C(c1cccc(Cl)c1)c1c(-c2ccccc2)[nH]c2ccccc12 (stereo not drawn) | 14.1% | – | – |
| COc1ccccc1C(C(N)=O)c1c(-c2ccccc2)[nH]c2ccccc12 (stereo not drawn) | 147% | – | – |
| CC1(C)COC(C(c2ccc(Cl)cc2)c2c(-c3ccc4c(c3)CCCC4)[nH]c3ccccc23)=N1 (stereo not drawn) | 145% | 18.8 µM | – |
| COc1ccccc1C(C(N)=O)c1c(-c2ccc3ccccc3c2)[nH]c2ccccc12 (stereo not drawn) | 42.4% | 0.28 µM | IC50 (SW-620): 1.41 µM; IC50 [3]: 1.33 µM; IC50 at 96 h [4]: 155 µM |
| CC1=C(/C=C/C(C)=C/C=C/C(C)=C/C(=O)O)C(C)(C)CCC1 [TRETINOIN] | – | 6.7 µM | – |
